Results taken from patent US20150231147A1, “METHODS FOR ACUTE AND LONG-TERM TREATMENT OF DRUG ADDICTION” (DemeRx, Inc., priority 2014, published 2015).

System: opioid-dependent participants
Assay: Treatment emergent adverse events in opioid-dependent participants
Format: in vivo, human
Settings: opioid-dependent patients
Method: The efficacy of noribogaine in humans was evaluated in opioid-dependent participants in a randomized, placebo-controlled, double-blind trial. […] See U.S. application Ser. No. 14/214,157, filed Mar. 14, 2014 and Ser. No. 14/346,655, filed Mar. 21, 2014, which are incorporated herein by reference in their entireties.
Three cohorts of nine (9) subjects (6 administered noribogaine and 3 administered placebo in each cohort) were evaluated for tolerability, pharmacokinetics, and efficacy. Cohort 1 received a single dose of 60 mg noribogaine or placebo. Cohort 2 received a single dose of 120 mg noribogaine or placebo. Cohort 3 received a single dose of 180 mg noribogaine or placebo.

## CC[C@H]1CC2C[C@H]3c4[nH]c5ccc(O)cc5c4CCN(C2)C13 [Noribogaine]
Single 60 mg dose (N = 6)
  Treatment emergent AEs: Catheter Site Infection: 0
  Treatment emergent AEs: Catheter Site Pain: 0
  Treatment emergent AEs: Catheter Site Related Reaction: 0
  Treatment emergent AEs: Cellulitis: 0
  Treatment emergent AEs: Diarrhoea: 0
  Treatment emergent AEs: Dry Mouth: 0
  Treatment emergent AEs: Ear and Labyrinth Disorders: 0
  Treatment emergent AEs: Epistaxis: 0
  Treatment emergent AEs: Euphoric Mood: 0
  Treatment emergent AEs: General Disorders and Administration Site Conditions: 0
  Treatment emergent AEs: Hyperaesthesia: 0
  Treatment emergent AEs: Infections and Infestations: 0
  Treatment emergent AEs: Limb Discomfort: 0
  Treatment emergent AEs: Malaise: 0
  Treatment emergent AEs: Nausea: 0
  Treatment emergent AEs: Oropharyngeal Pain: 0
  Treatment emergent AEs: Pseudoparalysis: 0
  Treatment emergent AEs: Respiratory, Thoracic and Mediestinal Disorders: 0
  Treatment emergent AEs: Rhinorrhoea: 0
  Treatment emergent AEs: Skin Discomfort: 0
  Treatment emergent AEs: Skin Irritation: 0
  Treatment emergent AEs: Skin and Subcutaneous Tissue Disorders: 0
  Treatment emergent AEs: Somnolence: 0
  Treatment emergent AEs: Tinnitus: 0
  Treatment emergent AEs: Tremor: 0
  Treatment emergent AEs: Urinary Tract Infection: 0
  Treatment emergent AEs: Vomiting: 0
Single 120 mg dose (N = 6)
  Treatment emergent AEs: Back pain: 0
  Treatment emergent AEs: Catheter Site Infection: 0
  Treatment emergent AEs: Catheter Site Related Reaction: 0
  Treatment emergent AEs: Depressed Mood: 0
  Treatment emergent AEs: Dry Eye: 0
  Treatment emergent AEs: Dyspepsia: 0
  Treatment emergent AEs: Euphoric Mood: 0
  Treatment emergent AEs: Limb Discomfort: 0
  Treatment emergent AEs: Malaise: 0
  Treatment emergent AEs: Musculoskeletal and Connective Tissue Disorders: 0
  Treatment emergent AEs: Psychiatric Disorders: 0
  Treatment emergent AEs: Somnolence: 0
  Treatment emergent AEs: Urinary Tract Infection: 0
Single 180 mg dose (N = 6)
  Treatment emergent AEs: Catheter Site Infection: 0
  Treatment emergent AEs: Catheter Site Pain: 0
  Treatment emergent AEs: Depressed Mood: 0
  Treatment emergent AEs: Diarrhoea: 0
  Treatment emergent AEs: Dry Eye: 0
  Treatment emergent AEs: Dyspepsia: 0
  Treatment emergent AEs: Ear and Labyrinth Disorders: 0
  Treatment emergent AEs: Epistaxis: 0
  Treatment emergent AEs: Euphoric Mood: 0
  Treatment emergent AEs: Hyperaesthesia: 0
  Treatment emergent AEs: Malaise: 0
  Treatment emergent AEs: Oropharyngeal Pain: 0
  Treatment emergent AEs: Pseudoparalysis: 0
  Treatment emergent AEs: Psychiatric Disorders: 0
  Treatment emergent AEs: Respiratory, Thoracic and Mediestinal Disorders: 0
  Treatment emergent AEs: Rhinorrhoea: 0
  Treatment emergent AEs: Skin Discomfort: 0
  Treatment emergent AEs: Skin Irritation: 0
  Treatment emergent AEs: Skin and Subcutaneous Tissue Disorders: 0
  Treatment emergent AEs: Somnolence: 0
  Treatment emergent AEs: Tinnitus: 0
  Treatment emergent AEs: Tremor: 0
Single 60, 120 or 180 mg dose
  adverse effects observed: Few adverse effects
  hallucinatory effects: no hallucinatory effects
